According to PubChem BioAssay (NCI):
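In this assay, cells in 96-well plates receive the compound at five concentrations for 48 hours. Endpoints are linearly interpolated between the surrounding concentrations. TGI: total growth inhibition.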

Columns and labels:
Assay in all cases: NCI tumour cell line growth inhibition, 48 h
[1] = tested on: 786-0 renal
[2] = tested on: A549 NSCLC
[3] = tested on: ACHN renal
[4] = tested on: CCRF-CEM leukemia
[5] = tested on: COLO 205 colon
[6] = tested on: DMS 114 small cell lung
[7] = tested on: DMS 273 small cell lung
[8] = tested on: EKVX NSCLC
[9] = tested on: HCT-116 colon
[10] = tested on: HCT-15 colon
[11] = tested on: HL-60(TB) leukemia
[12] = tested on: HOP-18 NSCLC
[13] = tested on: HOP-62 NSCLC
[14] = tested on: HT29 colon
[15] = tested on: K-562 leukemia
[16] = tested on: KM12 colon
[17] = tested on: KM20L2 colon
[18] = tested on: LOX IMVI melanoma
[19] = tested on: LXFL 529 NSCLC
[20] = tested on: M14 melanoma
[21] = tested on: M19-MEL melanoma
[22] = tested on: MALME-3M melanoma
[23] = tested on: MOLT-4 leukemia
[24] = tested on: NCI-H226 lung
[25] = tested on: NCI-H23 lung
[26] = tested on: NCI-H460 lung
[27] = tested on: NCI-H522 lung
[28] = tested on: OVCAR-4 ovarian
[29] = tested on: OVCAR-8 ovarian
[30] = tested on: RPMI-8226 leukemia
[31] = tested on: RXF 393 renal
[32] = tested on: SF-268 CNS
[33] = tested on: SF-295 CNS
[34] = tested on: SK-MEL-2 melanoma
[35] = tested on: SK-MEL-28 melanoma
[36] = tested on: SK-MEL-5 melanoma
[37] = tested on: SK-OV-3 ovarian
[38] = tested on: SN12C renal
[39] = tested on: SNB-19 CNS
[40] = tested on: SNB-75 CNS
[41] = tested on: SNB-78 CNS
[42] = tested on: SW-620 colon
[43] = tested on: TK-10 renal
[44] = tested on: U251 CNS
[45] = tested on: UACC-257 melanoma
[46] = tested on: UACC-62 melanoma
[47] = tested on: UO-31 renal
[48] = tested on: XF 498 CNS
[49] = tested on: A498 renal
[50] = tested on: CAKI-1 renal
[51] = tested on: DLD-1 colon
[52] = tested on: HCC-2998 colon
[53] = tested on: HOP-92 NSCLC
[54] = tested on: IGROV1 ovarian
[55] = tested on: OVCAR-3 ovarian
[56] = tested on: OVCAR-5 ovarian
[57] = tested on: SF-539 CNS
[58] = tested on: SR leukemia

Measured: TGI

O[C@]12c3ccccc3C1CCCC2N1CCOCC1 (stereo not given in full)
not listed: [49] | [50] | [51] | [52] | [53] | [54] | [55] | [56] | [57] | [58]
> 100 µM: all other assays above

O=C(CC(=O)c1cccc2ccccc12)C(=O)Nc1nccs1
not listed: [6] | [39] | [48]
> 100 µM: all other assays above

OCC(O)C(OC1OC(CO)C(O)C(O)C1O)c1nn(-c2ccc(Cl)cc2)c2nc3cc(Cl)c(Cl)cc3nc12 (stereo not given)
not listed: [2] | [5] | [7] | [11] | [12] | [24] | [34] | [36] | [42] | [50] | [53] | [54]
> 100 µM: all other assays above

O=c1c2cc(Br)ccc2n(C2OC(CO)C(O)C(O)C2O)c(=S)n1-c1ccccc1 (stereo not given)
not listed: [4] | [7] | [20] | [36] | [37] | [46] | [50]
> 100 µM: all other assays above
